We go through 22 molecules from patent US8053553B2, “Targeting host proteinases as a therapeutic strategy against viral and bacterial pathogens” (Socpra Sciences Sante Et Humaines, priority 2007, dated 2011).

One may read the Ki as the equilibrium dissociation constant of an inhibitor or competing ligand from its target.

The test concerns the target T1, furin (Homo sapiens, UniProt P09958).
T1 construct: made in house; host or cells: Drosophila S2 cells (Invitrogen expression system)
Nature of the test: biochemical. Particulars: furin, Pyr-RTKR-AMC substrate; optimization of the inhibitory peptides (Table 3); read-out: Ki.

SMILES strings stand for the structures. Non-standard residues stand in square brackets, D forms with d. Residues, ends and D or L forms follow the SMILES beside them. Nle = CCCC[C@H](N)C(=O)O; Ahx = NCCCCCC(=O)O; βAla = NCCC(=O)O Bounds are passed on as bounds.

T1 sequence (P09958 108-794 limits assumed): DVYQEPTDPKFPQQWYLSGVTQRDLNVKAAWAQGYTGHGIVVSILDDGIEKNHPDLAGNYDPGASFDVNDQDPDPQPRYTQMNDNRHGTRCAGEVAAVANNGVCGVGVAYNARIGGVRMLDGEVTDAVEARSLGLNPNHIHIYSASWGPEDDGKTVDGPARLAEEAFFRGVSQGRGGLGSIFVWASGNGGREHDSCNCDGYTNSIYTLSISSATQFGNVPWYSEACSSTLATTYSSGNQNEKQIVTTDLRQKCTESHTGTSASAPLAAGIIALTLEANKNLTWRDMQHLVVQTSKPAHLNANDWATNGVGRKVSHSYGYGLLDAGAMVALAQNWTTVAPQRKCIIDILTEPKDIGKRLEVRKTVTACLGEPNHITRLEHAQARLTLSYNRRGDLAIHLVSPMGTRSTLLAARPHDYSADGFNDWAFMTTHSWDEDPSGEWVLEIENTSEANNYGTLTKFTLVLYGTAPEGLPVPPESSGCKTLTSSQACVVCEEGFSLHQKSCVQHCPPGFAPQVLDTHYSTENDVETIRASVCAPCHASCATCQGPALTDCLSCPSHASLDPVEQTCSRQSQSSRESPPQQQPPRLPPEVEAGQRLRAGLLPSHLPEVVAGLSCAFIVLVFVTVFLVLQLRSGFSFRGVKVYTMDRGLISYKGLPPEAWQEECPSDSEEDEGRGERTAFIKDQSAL

Regarding `C[C@H](NC(=O)[C@H](CCCNC(=N)N)NC(=O)[C@H](CCC(N)=O)NC(=O)[C@@H]1CCCN1C(=O)[C@@H](N)[C@@H](C)O)C(=O)N[C@@H](CCCNC(=N)N)C(=O)N[C@@H](CCCNC(=N)N)C(=O)N[C@@H](CCCNC(=N)N)C(=O)N[C@@H](CCCCN)C(=O)N[C@@H](CCCCN)C(=O)N[C@@H](CCCNC(=N)N)C(=O)N[C@@H](CCCCN)C(N)=O` (H-TPQRARRRKKRK-NH2), the Ki was more than 100 nM.
Then `CC(C)C[C@H](NC(=O)[C@H](CCCNC(=N)N)NC(=O)[C@H](CCCCN)NC(=O)[C@H](CCCCN)NC(=O)[C@H](CCCNC(=N)N)NC(=O)[C@H](CCCNC(=N)N)NC(=O)[C@H](CCCNC(=N)N)NC(=O)[C@H](C)NC(=O)[C@H](CCCNC(=N)N)NC(=O)[C@H](CCC(N)=O)NC(=O)[C@@H]1CCCN1C(=O)[C@@H](N)[C@@H](C)O)C(N)=O` (H-TPQRARRRKKRL-NH2), with more than 100 nM; and `CSCC[C@H](NC(=O)[C@H](CCCNC(=N)N)NC(=O)[C@H](CCCCN)NC(=O)[C@H](CCCCN)NC(=O)[C@H](CCCNC(=N)N)NC(=O)[C@H](CCCNC(=N)N)NC(=O)[C@H](CCCNC(=N)N)NC(=O)[C@H](C)NC(=O)[C@H](CCCNC(=N)N)NC(=O)[C@H](CCC(N)=O)NC(=O)[C@@H]1CCCN1C(=O)[C@@H](N)[C@@H](C)O)C(N)=O` (H-TPQRARRRKKRM-NH2), with 58 nM.
Then `C[C@H](NC(=O)[C@H](CCCNC(=N)N)NC(=O)[C@H](CCC(N)=O)NC(=O)[C@@H]1CCCN1C(=O)[C@@H](N)[C@@H](C)O)C(=O)N[C@@H](CCCNC(=N)N)C(=O)N[C@@H](CCCNC(=N)N)C(=O)N[C@@H](CCCNC(=N)N)C(=O)N[C@@H](CCCCN)C(=O)N[C@@H](CCCCN)C(=O)N[C@@H](CCCNC(=N)N)C(=O)N[C@@H](CC(N)=O)C(N)=O` (H-TPQRARRRKKRN-NH2), with more than 100 nM.
With `C[C@H](NC(=O)[C@H](CCCNC(=N)N)NC(=O)[C@H](CCC(N)=O)NC(=O)[C@@H]1CCCN1C(=O)[C@@H](N)[C@@H](C)O)C(=O)N[C@@H](CCCNC(=N)N)C(=O)N[C@@H](CCCNC(=N)N)C(=O)N[C@@H](CCCNC(=N)N)C(=O)N[C@@H](CCCCN)C(=O)N[C@@H](CCCCN)C(=O)N[C@@H](CCCNC(=N)N)C(=O)N1CCC[C@H]1C(N)=O` (H-TPQRARRRKKRP-NH2), the Ki is more than 100 nM.
Then `C[C@H](NC(=O)[C@H](CCCNC(=N)N)NC(=O)[C@H](CCC(N)=O)NC(=O)[C@@H]1CCCN1C(=O)[C@@H](N)[C@@H](C)O)C(=O)N[C@@H](CCCNC(=N)N)C(=O)N[C@@H](CCCNC(=N)N)C(=O)N[C@@H](CCCNC(=N)N)C(=O)N[C@@H](CCCCN)C(=O)N[C@@H](CCCCN)C(=O)N[C@@H](CCCNC(=N)N)C(=O)N[C@@H](CCC(N)=O)C(N)=O` (H-TPQRARRRKKRQ-NH2), with more than 100 nM; and `C[C@H](NC(=O)[C@H](CCCNC(=N)N)NC(=O)[C@H](CCC(N)=O)NC(=O)[C@@H]1CCCN1C(=O)[C@@H](N)[C@@H](C)O)C(=O)N[C@@H](CCCNC(=N)N)C(=O)N[C@@H](CCCNC(=N)N)C(=O)N[C@@H](CCCNC(=N)N)C(=O)N[C@@H](CCCCN)C(=O)N[C@@H](CCCCN)C(=O)N[C@@H](CCCNC(=N)N)C(=O)N[C@@H](CCCNC(=N)N)C(N)=O` (H-TPQRARRRKKRR-NH2), with more than 100 nM; and `C[C@H](NC(=O)[C@H](CCCNC(=N)N)NC(=O)[C@H](CCC(N)=O)NC(=O)[C@@H]1CCCN1C(=O)[C@@H](N)[C@@H](C)O)C(=O)N[C@@H](CCCNC(=N)N)C(=O)N[C@@H](CCCNC(=N)N)C(=O)N[C@@H](CCCNC(=N)N)C(=O)N[C@@H](CCCCN)C(=O)N[C@@H](CCCCN)C(=O)N[C@@H](CCCNC(=N)N)C(=O)N[C@@H](CO)C(N)=O` (H-TPQRARRRKKRS-NH2), with more than 100 nM.
Then `C[C@H](NC(=O)[C@H](CCCNC(=N)N)NC(=O)[C@H](CCC(N)=O)NC(=O)[C@@H]1CCCN1C(=O)[C@@H](N)[C@@H](C)O)C(=O)N[C@@H](CCCNC(=N)N)C(=O)N[C@@H](CCCNC(=N)N)C(=O)N[C@@H](CCCNC(=N)N)C(=O)N[C@@H](CCCCN)C(=O)N[C@@H](CCCCN)C(=O)N[C@@H](CCCNC(=N)N)C(=O)N[C@H](C(N)=O)[C@@H](C)O` (H-TPQRARRRKKRT-NH2), with 33 nM; and `CC(C)[C@H](NC(=O)[C@H](CCCNC(=N)N)NC(=O)[C@H](CCCCN)NC(=O)[C@H](CCCCN)NC(=O)[C@H](CCCNC(=N)N)NC(=O)[C@H](CCCNC(=N)N)NC(=O)[C@H](CCCNC(=N)N)NC(=O)[C@H](C)NC(=O)[C@H](CCCNC(=N)N)NC(=O)[C@H](CCC(N)=O)NC(=O)[C@@H]1CCCN1C(=O)[C@@H](N)[C@@H](C)O)C(N)=O` (H-TPQRARRRKKRV-NH2), with 48 nM.
Then `C[C@H](NC(=O)[C@H](CCCNC(=N)N)NC(=O)[C@H](CCC(N)=O)NC(=O)[C@@H]1CCCN1C(=O)[C@@H](N)[C@@H](C)O)C(=O)N[C@@H](CCCNC(=N)N)C(=O)N[C@@H](CCCNC(=N)N)C(=O)N[C@@H](CCCNC(=N)N)C(=O)N[C@@H](CCCCN)C(=O)N[C@@H](CCCCN)C(=O)N[C@@H](CCCNC(=N)N)C(=O)N[C@@H](Cc1c[nH]c2ccccc12)C(N)=O` (H-TPQRARRRKKRW-NH2), with 34 nM.
Consider `C[C@H](NC(=O)[C@H](CCCNC(=N)N)NC(=O)[C@H](CCC(N)=O)NC(=O)[C@@H]1CCCN1C(=O)[C@@H](N)[C@@H](C)O)C(=O)N[C@@H](CCCNC(=N)N)C(=O)N[C@@H](CCCNC(=N)N)C(=O)N[C@@H](CCCNC(=N)N)C(=O)N[C@@H](CCCCN)C(=O)N[C@@H](CCCCN)C(=O)N[C@@H](CCCNC(=N)N)C(=O)N[C@@H](Cc1ccc(O)cc1)C(N)=O` (H-TPQRARRRKKRY-NH2), for which the Ki stood at 47 nM.
Then `C[C@H](NC(=O)[C@H](CCCNC(=N)N)NC(=O)[C@H](CCC(N)=O)NC(=O)[C@@H]1CCCN1C(=O)[C@@H](N)[C@@H](C)O)C(=O)N[C@@H](CCCNC(=N)N)C(=O)N[C@@H](CCCNC(=N)N)C(=O)N[C@@H](CCCNC(=N)N)C(=O)N[C@@H](CCCCN)C(=O)N[C@@H](CCCCN)C(=O)N[C@@H](CCCNC(=N)N)C(=O)NCCCCCC(N)=O` (H-TPQRARRRKKR[Ahx]-NH2), with more than 100 nM; and `CCCC[C@H](NC(=O)[C@H](CCCNC(=N)N)NC(=O)[C@H](CCCCN)NC(=O)[C@H](CCCCN)NC(=O)[C@H](CCCNC(=N)N)NC(=O)[C@H](CCCNC(=N)N)NC(=O)[C@H](CCCNC(=N)N)NC(=O)[C@H](C)NC(=O)[C@H](CCCNC(=N)N)NC(=O)[C@H](CCC(N)=O)NC(=O)[C@@H]1CCCN1C(=O)[C@@H](N)[C@@H](C)O)C(N)=O` (H-TPQRARRRKKR[Nle]-NH2), with more than 100 nM; and `C[C@H](NC(=O)[C@H](CCCNC(=N)N)NC(=O)[C@H](CCC(N)=O)NC(=O)[C@@H]1CCCN1C(=O)[C@@H](N)[C@@H](C)O)C(=O)N[C@@H](CCCNC(=N)N)C(=O)N[C@@H](CCCNC(=N)N)C(=O)N[C@@H](CCCNC(=N)N)C(=O)N[C@@H](CCCCN)C(=O)N[C@@H](CCCCN)C(=O)N[C@@H](CCCNC(=N)N)C(=O)N[C@H](CCCCN)C(N)=O` (H-TPQRARRRKKR[dK]-NH2), with more than 100 nM.
Then `C[C@H](NC(=O)[C@H](CCCNC(=N)N)NC(=O)[C@H](CCC(N)=O)NC(=O)[C@@H]1CCCN1C(=O)[C@@H](N)[C@@H](C)O)C(=O)N[C@@H](CCCNC(=N)N)C(=O)N[C@@H](CCCNC(=N)N)C(=O)N[C@@H](CCCNC(=N)N)C(=O)N[C@@H](CCCCN)C(=O)N[C@@H](CCCCN)C(=O)N[C@@H](CCCNC(=N)N)C(=O)N[C@H](CCCNC(=N)N)C(N)=O` (H-TPQRARRRKKR[dR]-NH2), with more than 100 nM; and `C[C@H](NC(=O)[C@H](CCCNC(=N)N)NC(=O)[C@H](CCC(N)=O)NC(=O)[C@@H]1CCCN1C(=O)[C@@H](N)[C@@H](C)O)C(=O)N[C@@H](CCCNC(=N)N)C(=O)N[C@@H](CCCNC(=N)N)C(=O)N[C@@H](CCCNC(=N)N)C(=O)N[C@@H](CCCCN)C(=O)N[C@@H](CCCCN)C(=O)N[C@@H](CCCNC(=N)N)C(=O)NCCC(N)=O` (H-TPQRARRRKKR[βAla]-NH2), with more than 100 nM.
Then `C[C@@H](O)[C@H](N)C(=O)N1CCC[C@H]1C(=O)N[C@@H](CCC(N)=O)C(=O)N[C@@H](CCCNC(=N)N)C(=O)N[C@@H](CC(=O)O)C(=O)N[C@@H](CCCNC(=N)N)C(=O)N[C@@H](CCCNC(=N)N)C(=O)N[C@@H](CCCNC(=N)N)C(=O)N[C@@H](CCCCN)C(=O)N[C@@H](CCCCN)C(=O)N[C@@H](CCCNC(=N)N)C(=O)NCC(N)=O` (H-TPQRDRRRKKRG-NH2), with more than 100 nM.
Regarding `C[C@@H](O)[C@H](N)C(=O)N1CCC[C@H]1C(=O)N[C@@H](CCC(N)=O)C(=O)N[C@@H](CCCNC(=N)N)C(=O)N[C@@H](Cc1ccccc1)C(=O)N[C@@H](CCCNC(=N)N)C(=O)N[C@@H](CCCNC(=N)N)C(=O)N[C@@H](CCCNC(=N)N)C(=O)N[C@@H](CCCCN)C(=O)N[C@@H](CCCCN)C(=O)N[C@@H](CCCNC(=N)N)C(=O)NCC(N)=O` (H-TPQRFRRRKKRG-NH2), the Ki was more than 100 nM.
Then `C[C@@H](O)[C@H](N)C(=O)N1CCC[C@H]1C(=O)N[C@@H](CCC(N)=O)C(=O)N[C@@H](CCCNC(=N)N)C(=O)NCC(=O)N[C@@H](CCCNC(=N)N)C(=O)N[C@@H](CCCNC(=N)N)C(=O)N[C@@H](CCCNC(=N)N)C(=O)N[C@@H](CCCCN)C(=O)N[C@@H](CCCCN)C(=O)N[C@@H](CCCNC(=N)N)C(=O)NCC(N)=O` (H-TPQRGRRRKKRG-NH2), with more than 100 nM.
Then `C[C@@H](O)[C@H](N)C(=O)N1CCC[C@H]1C(=O)N[C@@H](CCC(N)=O)C(=O)N[C@@H](CCCNC(=N)N)C(=O)N[C@@H](Cc1c[nH]cn1)C(=O)N[C@@H](CCCNC(=N)N)C(=O)N[C@@H](CCCNC(=N)N)C(=O)N[C@@H](CCCNC(=N)N)C(=O)N[C@@H](CCCCN)C(=O)N[C@@H](CCCCN)C(=O)N[C@@H](CCCNC(=N)N)C(=O)NCC(N)=O` (H-TPQRHRRRKKRG-NH2), with more than 100 nM; and `CC[C@H](C)[C@H](NC(=O)[C@H](CCCNC(=N)N)NC(=O)[C@H](CCC(N)=O)NC(=O)[C@@H]1CCCN1C(=O)[C@@H](N)[C@@H](C)O)C(=O)N[C@@H](CCCNC(=N)N)C(=O)N[C@@H](CCCNC(=N)N)C(=O)N[C@@H](CCCNC(=N)N)C(=O)N[C@@H](CCCCN)C(=O)N[C@@H](CCCCN)C(=O)N[C@@H](CCCNC(=N)N)C(=O)NCC(N)=O` (H-TPQRIRRRKKRG-NH2), with more than 100 nM.
